Experimental data taken from patent US8937077B2, “Bicyclic diamines as janus kinase inhibitors” (Merck Sharp & Dohme Corp., priority 2010, dated 2015).

target: T1, Jak1 (Homo sapiens, UniProt P23458); experiment: Jak Biochemical HTRF Assay (Jak1); conditions: IC50 class, recombinant GST-tagged catalytic domain, read-out: Jak1 activity
T1 construct: using a recombinant purified GST-tagged catalytic domain for each enzyme; GST; purchased Invitrogen M4290
Text: Compounds of formula I can be prepared according to the general procedures described in the Schemes and Examples herein, using appropriate materials. Representative compounds of the present invention are exemplified herein below. The compounds exemplified are not, however, to be construed as limiting the scope of the invention in any manner. The examples further illustrate details for the preparation of the compounds of the present invention. Those skilled in the art will readily understand that known variations of protecting groups, of reagents, as well as of the conditions and processes of the following preparative procedures, can be used to prepare these compounds. It is also understood that whenever a chemical reagent is not commercially available, such a chemical reagent can be readily prepared by those skilled in the art by either following or adapting known methods described in the literature or described herein. Chiral analogs were prepared via incorporation of chiral reagents or obtained after chiral chromatography separation of a racemically generated analog. All temperatures are degrees Celsius unless otherwise noted. Mass spectra (MS) were measured either by electrospray ion-mass spectroscopy (ESMS) or by atmospheric pressure chemical ionization mass spectroscopy (APCI). Jak1 data were obtained using the in vitro assay described below.
Jak Biochemical HTRF Assay Protocol
The ability of compounds to inhibit the activity of Jak1, Jak2, Jak3, and Tyk2 was measured using a recombinant purified GST-tagged catalytic domain for each enzyme (Invitrogen Jak1 #M4290, […]) in an HTRF format biochemical assay. The reactions employed a common peptide substrate, LCB-EQEDEPEGDYFEWLW-NH2 (in-house). The basic assay protocol is as follows: First, […] of diluted compounds in DMSO were dispensed into the wells of a dry 384-well Black plate (Greiner #781076) using a Labcyte Echo 555 acoustic dispenser. Subsequent reagent additions employed an Agilent Bravo. Next, 18 μL, of 1.11X enzyme and 1.11X substrate in 1X assay buffer (Invitrogen kinase buffer #PV3189, 2 mM DTT, 0.05% BSA) were added to the wells and shaken and then preincubated for 30 minutes at room temperature to allow compound binding to equilibrate. After equilibration, 2 μL of 10X ATP in 1X assay buffer was added to initiate the kinase reaction and the plates were shaken and then incubated at room temperature for 120 minutes. At the end of the incubation, 20 μL of 2X stop buffer (streptavidin-Dylight (Thermo #21845), Eu-tagged pY20 antibody (Perkin Elmer #AD0067), EDTA, HEPES, and Triton) was added to quench the reaction. Plates were shaken and centrifuged and then incubated 60 minutes at room temperature and then read on a Perkin Elmer Envision (λex=337 nm, λem=665 and 615 nm, TRF delay time=20 μs). HTRF signal=10,000*665 nm reading/615 nm reading. After normalization to untreated controls, the percent inhibition of the HTRF signal at each compound concentration was calculated. The plot of percent inhibition versus the log of compound concentration was fit with a 4-parameter dose response equation to calculate IC50 values.

T1 sequence (P23458 875-1153 limits assumed): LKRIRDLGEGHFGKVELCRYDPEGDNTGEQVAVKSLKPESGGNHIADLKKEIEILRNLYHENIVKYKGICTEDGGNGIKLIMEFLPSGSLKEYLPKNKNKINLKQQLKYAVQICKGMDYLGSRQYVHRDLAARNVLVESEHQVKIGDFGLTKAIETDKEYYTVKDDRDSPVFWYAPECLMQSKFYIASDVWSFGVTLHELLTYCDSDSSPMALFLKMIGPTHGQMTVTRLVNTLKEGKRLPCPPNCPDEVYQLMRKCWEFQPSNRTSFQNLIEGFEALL

SMILES	IC50 [nM]
O=C(OC(CCN1CCOCC1)c1ccccc1)N1CCC[C@@H]2C1CCN2c1ncnc2[nH]ccc12 (mixture of isomers) [Example 8-3, (1R and 1S)-3-(morpholin-4-yl)-1-phenylpropyl (3aR,7aR)-1-(7H-pyrrolo[2,3-d]pyrimidin-4-yl)octahydro-4-pyrrolo[3,2-b]pyridine-4-carboxylate]	100 to 1000
c1nc(N2CCC3NCCC[C@@H]32)c2cc[nH]c2n1 (single isomer, unassigned) [Enantiomer 1]	100 to 1000
CN(C)CCOC(=O)N1CCC[C@@H]2[C@H]1CCN2c1ncnc2[nH]ccc12 (single isomer, unassigned) [Example 3-38]	100 to 1000
CCC(=O)N1CCC[C@@H]2[C@H]1CCN2c1ncnc2[nH]ccc12 (single isomer, unassigned) [Example 29-7]	100 to 1000
COCC(=O)N1CCC[C@@H]2[C@H]1CCN2c1ncnc2[nH]ccc12 (single isomer, unassigned) [Example 29-8]	100 to 1000
CCS(=O)(=O)N1CCC[C@@H]2[C@H]1CCN2c1ncnc2[nH]ccc12 (single isomer, unassigned) [Example 32-3]	10 to 100
O=S(=O)(N1CCC[C@@H]2[C@H]1CCN2c1ncnc2[nH]ccc12)C(F)(F)F (single isomer, unassigned) [Example 32-5]	100 to 1000
O=S(=O)(c1ccccc1)N1CCC[C@@H]2[C@H]1CCN2c1ncnc2[nH]ccc12 (single isomer, unassigned) [Example 32-6]	10 to 100
O=S(=O)(Cc1ccccc1)N1CCC[C@@H]2[C@H]1CCN2c1ncnc2[nH]ccc12 (single isomer, unassigned) [Example 32-7]	10 to 100
O=C(OCc1cccnc1)N1CCCC2C1CCN2c1ncnc2[nH]ccc12 [Example 3-1, (3aS,7aS and 3aR,7aR) pyridin-3-ylmethyl 1-(7H-pyrrolo[2,3-d]pyrimidin-4-yl)octahydro-4H-pyrrolo[3,2-b]pyridine-4-carboxylate]	10 to 100
O=C(OCc1ccc(F)cc1)N1CCCC2C1CCN2c1ncnc2[nH]ccc12 (stereo not drawn) [Example 3-2, 4-fluorobenzyl 1-(7H-pyrrolo[2,3-d]pyrimidin-4-yl)octahydro-4H-pyrrolo[3,2-b]-pyridine-4-carboxylate]	10 to 100
COc1cccc(COC(=O)N2CCCC3C2CCN3c2ncnc3[nH]ccc23)c1 (stereo not drawn) [Example 3-4, 3-methoxybenzyl 1-(7H-pyrrolo[2,3-d]pyrimidin-4-yl)octahydro-4H-pyrrolo[3,2-b]-pyridine-4-carboxylate]	10 to 100
O=C(OCCCc1cccnc1)N1CCCC2C1CCN2c1ncnc2[nH]ccc12 (stereo not drawn) [Example 3-5, 3-pyridin-3-ylpropyl 1-(7H-pyrrolo[2,3-d]pyrimidin-4-yl)octahydro-4H-pyrrolo[3,2-b]-pyridine-4-carboxylate]	10 to 100
O=C(OCc1ccc(Cl)cc1)N1CCCC2C1CCN2c1ncnc2[nH]ccc12 (stereo not drawn) [Example 3-6, 4-chlorobenzyl 1-(7H-pyrrolo[2,3-d]pyrimidin-4-yl)octahydro-4H-pyrrolo[3,2-b]-pyridine-4-carboxylate]	10 to 100
O=C(OCCCc1ccccc1)N1CCCC2C1CCN2c1ncnc2[nH]ccc12 (stereo not drawn) [Example 3-7, 3-phenylpropyl 1-(7H-pyrrolo[2,3-d]pyrimidin-4-yl)octahydro-4H-pyrrolo[3,2-b]-pyridine-4-carboxylate]	10 to 100
O=C(OCCc1ccccc1)N1CCCC2C1CCN2c1ncnc2[nH]ccc12 (stereo not drawn) [Example 3-8, 2-phenylethyl 1-(7H-pyrrolo[2,3-d]pyrimidin-4-yl)octahydro-4H-pyrrolo[3,2-b]pyridine-4-carboxylate]	10 to 100
O=C(OCc1cccc(F)c1)N1CCCC2C1CCN2c1ncnc2[nH]ccc12 (stereo not drawn) [Example 3-9, 3-fluorobenzyl 1-(7H-pyrrolo[2,3-d]pyrimidin-4-yl)octahydro-4H-pyrrolo[3,2-b]-pyridine-4-carboxylate]	10 to 100
O=C(OC1CCOCC1)N1CCCC2C1CCN2c1ncnc2[nH]ccc12 (stereo not drawn) [Example 3-10, tetrahydro-2H-pyran-4-yl 1-(7H-pyrrolo[2,3-d]pyrimidin-4-yl)octahydro-4H-pyrrolo[3,2-b]pyridine-4-carboxylate]	10 to 100
O=C(OC1Cc2ccccc2C1)N1CCCC2C1CCN2c1ncnc2[nH]ccc12 (stereo not drawn) [Example 3-11, 2,3-dihydro-1H-inden-2-yl 1-(7H-pyrrolo[2,3-d]pyrimidin-4-yl)octahydro-4H-pyrrolo[3,2-b]pyridine-4-carboxylate]	10 to 100
O=C(OCc1ccccn1)N1CCCC2C1CCN2c1ncnc2[nH]ccc12 (stereo not drawn) [Example 3-12, pyridin-2-ylmethyl 1-(7H-pyrrolo[2,3-d]pyrimidin-4-yl)octahydro-4H-pyrrolo[3,2-b]-pyridine-4-carboxylate]	10 to 100
O=C(OCc1ccncc1)N1CCCC2C1CCN2c1ncnc2[nH]ccc12 (stereo not drawn) [Example 3-13, pyridin-4-ylmethyl 1-(7H-pyrrolo[2,3-d]pyrimidin-4-yl)octahydro-4H-pyrrolo[3,2-b]-pyridine-4-carboxylate]	10 to 100
O=C(OCc1ccc2ccccc2c1)N1CCCC2C1CCN2c1ncnc2[nH]ccc12 (stereo not drawn) [Example 3-15, naphthalen-2-ylmethyl 1-(7H-pyrrolo[2,3-d]pyrimidin-4-yl)octahydro-4H-pyrrolo[3,2-b]pyridine-4-carboxylate]	10 to 100
Cc1cccc(COC(=O)N2CCCC3C2CCN3c2ncnc3[nH]ccc23)c1 (stereo not drawn) [Example 3-16, 3-methylbenzyl 1-(7H-pyrrolo[2,3-d]pyrimidin-4-yl)octahydro-4H-pyrrolo[3,2-b]-pyridine-4-carboxylate]	10 to 100

More lines, now with the values ahead:

IC50 [nM]	SMILES
10 to 100	CC(Cc1ccccc1)C(=O)N1CCC[C@@H]2[C@H]1CCN2c1ncnc2[nH]ccc12 (mixture of isomers) [Example 29-56, (2S and 2R)-2-methyl-3-phenyl-1-[(3aR,7aR)-1-(7H-pyrrolo[2,3-d]pyrimidin-4-yl)octahydro-4H-pyrrolo[3,2-b]pyridine-4-yl]propan-1-one]
10 to 100	O=C(OCc1ccccc1)N1CCCC2C1CCN2c1ncnc2[nH]ccc12 (racemic) [Example 1, (3aS,7aS and 3aR,7aR) benzyl 1-(7H-pyrrolo[2,3-d]pyrimidin-4-yl)octahydro-4H-pyrrolo[3,2-b]-pyridine-4-carboxylate]
10 to 100	CCCCOC(=O)N1CCCC2C1CCN2c1ncnc2[nH]ccc12 (racemic) [Example 3-3, butyl 1-(7H-pyrrolo[2,3-d]pyrimidin-4-yl)octahydro-4H-pyrrolo[3,2-b]pyridine-4-carboxylate]
10 to 100	CCCCC(=O)N1CCCC2C1CCN2c1ncnc2[nH]ccc12 (racemic) [Example 29-2, 4-(4-pentanoyloctahydro-1H-pyrrolo[3,2-b]pyridin-1-yl)-7H-pyrrolo[2,3-d]pyrimidine]
10 to 100	O=C(c1ccccc1)N1CCCC2C1CCN2c1ncnc2[nH]ccc12 (racemic) [Example 29-3, 4-[4-(phenylcarbonyl)octahydro-1H-pyrrolo[3,2-b]pyridin-1-yl]-7H-pyrrolo[2,3-d]-pyrimidine]
10 to 100	CC(C(=O)N1CCC[C@@H]2[C@H]1CCN2c1ncnc2[nH]ccc12)N1CCOCC1 (mixture of isomers) [Example 29-43, 4-[(3aR,7aR)-4-(2-morpholin-4-ylpropanoyl)octahydro-1H-pyrrolo[3,2-b]pyridin-1-yl]7H-pyrrolo[2,3-d]pyrimidine]
10 to 100	O=C(OCCF)N1CCC[C@@H]2[C@H]1CCN2c1ncnc2[nH]ccc12 (single isomer, unassigned) [Example 3-30]
10 to 100	COCCOC(=O)N1CCC[C@@H]2[C@H]1CCN2c1ncnc2[nH]ccc12 (single isomer, unassigned) [Example 3-35]
10 to 100	O=C(OCCOCC(F)(F)F)N1CCC[C@@H]2[C@H]1CCN2c1ncnc2[nH]ccc12 (single isomer, unassigned) [Example 3-43]
1 to 10	COc1ccc(COC(=O)N2CCCC3C2CCN3c2ncnc3[nH]ccc23)cc1 (stereo not drawn) [Example 3-14, 4-methoxybenzyl 1-(7H-pyrrolo[2,3-d]pyrimidin-4-yl)octahydro-4H-pyrrolo[3,2-b]-pyridine-4-carboxylate]
